Measurements published in paper PMC8341910, “Structural and biophysical insights into the mode of covalent binding of rationally designed potent BMX inhibitors” (RSC Chemical Biology, 2020).
≈ marks a conversion by molar mass, not a printed value. Like-named read-outs stand apart in the source and are kept apart here.

Experiments:
BMX [1] = target: T1, BMX (Homo sapiens, UniProt P51813); experiment: BMX biochemical activity assay (HTRF, phosphorylation of a biotinylated peptide)
T1 sequence (P51813 1-675): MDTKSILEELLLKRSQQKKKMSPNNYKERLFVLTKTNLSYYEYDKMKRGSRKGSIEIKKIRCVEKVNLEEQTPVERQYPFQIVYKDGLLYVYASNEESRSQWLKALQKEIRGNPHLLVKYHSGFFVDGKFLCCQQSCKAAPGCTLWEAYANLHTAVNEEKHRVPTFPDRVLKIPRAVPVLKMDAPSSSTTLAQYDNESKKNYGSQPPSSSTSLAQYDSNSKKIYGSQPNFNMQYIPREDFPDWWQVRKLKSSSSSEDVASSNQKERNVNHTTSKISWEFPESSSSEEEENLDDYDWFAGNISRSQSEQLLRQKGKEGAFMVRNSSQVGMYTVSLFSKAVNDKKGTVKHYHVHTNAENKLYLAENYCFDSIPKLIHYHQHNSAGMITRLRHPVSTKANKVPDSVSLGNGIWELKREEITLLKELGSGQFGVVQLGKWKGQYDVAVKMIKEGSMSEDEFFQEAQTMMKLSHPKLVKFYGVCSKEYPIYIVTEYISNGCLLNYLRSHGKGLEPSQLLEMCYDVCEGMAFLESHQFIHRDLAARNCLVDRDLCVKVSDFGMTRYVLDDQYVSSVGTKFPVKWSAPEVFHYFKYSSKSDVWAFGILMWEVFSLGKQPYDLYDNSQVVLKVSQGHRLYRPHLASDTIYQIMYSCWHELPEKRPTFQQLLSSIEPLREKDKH

[2] = Dynamic light scattering, colloidal aggregation; format: physicochemical; conditions: deionized and filtered water (0.1% DMSO), kinetic from dmso stock, measured at 10 µM, 1 µM and 100 nM, 25 °C, read-out: DLS maximum soluble concentration at which no aggregates are observed
Experimental: In addition, we measured particle sizes by using dynamic light scattering (DLS).
DLS is measured at 10 µM, 1µM and 100 nM. The maximum soluble
concentration – at which no aggregates are observed - is indicated and the colour code indicates
Dynamic Light Scattering:
Dynamic light scattering (Zetasizer Nano S, Malvern, UK) was used to determine compound colloidal aggregation. […] A 10 mM stock solution of
test compounds was prepared in DMSO, following dilution to deionized and filtered water to
obtain an analyte solution of 10 μM (0.1% DMSO). Colloidal aggregation was measured
through sequential dilutions at 10 μM, 1 μM and 0.1 μM.

[3] = target: T2, recombinant human BMX protein (hBMX) (Homo sapiens, UniProt P51813); experiment: Differential scanning fluorimetry (DSF); format: binding; conditions: for ΔTm at 100 µM: read-out: ΔTm; for Average Tm of BMX with compound: apo-BMX Tm 51.8-52.2 °C
T2 construct: Crystallization, data collection, and structure determination of BMX catalytic domain in; made in house; host or cells: Sf-9 insect cells
Experimental: We further characterized the binding interaction between JS24–JS27 and BMX by using differential scanning fluorimetry (DSF) and surface plasmon resonance (SPR). Purified recombinant human BMX protein (hBMX) was first subjected to thermal scanning in the absence and presence of JS24–JS27, and the respective protein melting temperature (Tm) calculated.
Differential Scanning Fluorimetry:
DSF was performed in MicroAmp™ EnduraPlate™ Optical 96 -Well Clear Reaction Plates
with Barcode (Applied Biosystems, Life Technologies, California, USA) using a QuantStudio
7 Flex Real-Time PCR System (Applied Biosystems). Pre-incubation of the protein with the
compound for 2 hours at 4 °C was required prior to DSF experiments. The final reaction mixture
(20 μL of total volume) contained 4 μg of His6-BMX, 4-fold of Protein Thermal Shift™ Dye
(Applied Biosystems) diluted in protein buffer solution, and 100 μM of compound. The
temperatures were obtained by taking the midpoint of each transition.

LNCaP cells [4] = experiment: LNCaP cell growth assay (CellTiter-Glo, 96 h); format: cell-based; conditions: Homo sapiens, read-out: GI50 LNCaP
Experimental: (§1) GI50 values are reported in μM and are the mean of three individual experiments performed in triplicate. N.d., non-determined, no growth inhibition observed within the concentrations tested.
(§2) Cellular activity Assay: LNCaP and PC-3 Cell Growth Assay
(§3) Cells were seeded in white, opaque-bottom 96-well plates at 5000 cells/well (LNCaP) or 2000 cells/well (PC-3) in a total volume of 100 µL of culture media.
(§4) fold) in 100 µL media were added to the cells 24 hours later. After 96 hours incubation cellular viability was assessed by CellTiter-Glo® (Promega) according to the manufacturer’s instructions. The values were normalized to vehicle and IC50 was calculated using GraphPad

PC3 cells = experiment: PC-3 cell growth assay (CellTiter-Glo, 96 h); format: cell-based; conditions: Homo sapiens, read-out: GI50 PC3
Experimental: as §1, §2, §3, §4

LNCaP cells [5] = experiment: Anti-proliferative co-treatment assays in LNCaP; format: cell-based; conditions: JS24 3 μM, JS25 5 μM, JS26 6 μM, 5 days; for cell viability reduction: co-treatment with Flutamide (50 μM)
H1299 = experiment: Multi cell line growth assay (CellTiter-Glo, 72 h); format: cell-based, human; conditions: Homo sapiens, NCI-H1299, Bone marrow (so in the source), ND = no growth inhibition observed
[6] = pH 6.8
From the text: (§5) For assessment of drug permeability, we relied on parallel artificial membrane permeability assay (PAMPA) performed at Pion Inc. with the PAMPA Evolution™ instrument (Table S1, ESI ^†).
(§6) methods (ESOL model1 and Ali et al.2) PAMPA: Pe is effective permeability (x10-6 cm/sec)
(§7) measured directly from assay at pH 6.8 and %R is membrane retention.
(§8) as the average of quadruplicates. Und label refers to compounds with extremely low solubility
(§9) for which UV limits were below the detection limits therefore considered undetected.
(§10) Compounds were labelled as high permeability (green), medium permeability (orange) or low
(§11) Artificial Membrane Permeability (PAMPA):
(§12) The PAMPA Evolution™ instrument was used to determine permeability, at Pion Inc. In
(§13) PAMPA, a sandwich is formed such that each composite well is divided into two chambers,
(§14) measured at pH 6.8 in the donor compartment using low-binding, low UV Prisma buffer. The
(§15) drug-free acceptor compartment was filled with acceptor sink buffer containing a scavenger at
(§16) the start of the test. The proprietary scavenger mimics serum proteins and blood circulation,
(§17) thus creating sink conditions. Aqueous solutions of studied compounds are prepared by diluting
(§18) and thoroughly mixing 3 µL of DMSO stock in 600 µL of Prisma HT buffer. Final
(§19) concentration of organic solvent (DMSO) in aqueous buffer is ≤ 0.5% (v/v). The reference
(§20) solution is identical to the donor at time zero, so that any surface adsorption effects from the
(§21) plastic ware is compensated. The PAMPA sandwich was assembled and allowed to incubate
(§22) for ~15 hours. The solutions in the donor compartment were un-stirred within duration of the
(§23) experiment. Thus, the thickness of the aqueous boundary layer expected to be about 1000 µm.
(§24) The sandwich was then separated, and both the donor and receiver compartments were assayed
(§25) for the amount of drug present by comparison with the UV spectrum obtained from reference

in vitro = conditions: PAMPA
From the text: as §5, §6, §7, §8, §9, §10, §11, §12, §13, §14, §15, §16, §17, §18, §19, §20, §21, §22, §23, §24, §25

BTK = BTK (Homo sapiens, UniProt Q06187); experiment: BTK biochemical activity assay (radiometric, KinaseProfiler); parameters: purchased Eurofins DiscoverX KinaseProfiler (contract assay); conditions: for IC50: duplicate, mean ± S.D., read-out: BTK inhibition IC50
[7] = target: T3, wild-type BMX in PC3 cells (Homo sapiens, UniProt P51813); experiment: BMX degradation assay in PC3 cells (Western blot); format: cell-based; conditions: 10 μM; 24 h and 72 h; band intensity normalized to α-Tubulin
T3 construct: endogenous in cells; host or cells: PC3 prostate cancer cells (wild-type, untransfected)
Experimental: The cell proliferation depends on BMX kinase activity that was used to monitor the cellular activity of the compounds (IC50). […].  Fig. 5 (a) Intracellular target engagement in HEK293 cells transiently transfected with BMX expressing NanoLuc®-BMX fusion vector with Promega's NanoBRET™ TE Intracellular Kinase Assay. […] Band intensity was measured using ImageJ and normalized with α-Tubulin band intensity. […] Data are mean ± standard deviation obtained from at least three independent measurements (n = 3). See ESI ^† for additional data and analysis. […] | page 12: […]
degradation assay. Protein band intensity normalized with α-Tubulin band intensity and quantified using ImageJ. Data was obtained from at least three independent measurements […]
concentration against PC3 cells, plated on 6-well plates, a day after attachment. DMSO was used as a control vehicle. At 24 h and 72 h of incubation, cells were washed in 1X PBS and lysed in 100 µL RIPA Buffer (in house) supplemented with EDTA-free Protease Inhibitor Cocktail (Merk) and DNase I (Merk). The lysis procedure was performed by re-suspending cells continuously, followed by a incubation of 30 min on ice. BMX antibody (Abcam) and tubulin antibody (Cell signaling Technology) were used in the Western blot. Band intensity […]

BMX [8] = target: T1, BMX; experiment: KINOMEscan binding; conditions: read-out: % Ctrl BMX
Experimental: (§26) Therefore, we included the whole TEC, EGFR and JAK family in our screening, and the Src family and Lkb1, which also have a cysteine within the same sequence alignment.
(§27) Kinome selectivity was performed with DiscoverX KINOMEscan™ technology.

TXK = TXK (Homo sapiens, UniProt P42681); experiment: KINOMEscan binding; conditions: read-out: % Ctrl TXK
Experimental: as §26, §27

PIK3CB = PIK3CB (Homo sapiens, UniProt P42338); experiment: KINOMEscan binding; conditions: read-out: % Ctrl PIK3CB
Experimental: (§28) Therefore, we included the whole TEC, EGFR and JAK family in our screening, and the Src family and Lkb1, which also have a cysteine within the same sequence alignment. We also included kinases involved in upstream (Src, FAK, PI3K, mTOR, PDK1) and downstream (Akt, PAK1, TAM) regulation of BMX signaling pathway and non-receptor tyrosine protein kinase Abl.
as §27

SRC = SRC (Homo sapiens, UniProt P12931); experiment: KINOMEscan binding; conditions: read-out: % Ctrl SRC
Experimental: as §28, §27

HCK = HCK (Homo sapiens, UniProt P08631); experiment: KINOMEscan binding; conditions: read-out: % Ctrl HCK
Experimental: as §26, §27

STK11 = STK11 (Homo sapiens, UniProt Q15831); experiment: KINOMEscan binding; conditions: read-out: % Ctrl STK11
Experimental: as §28, §27

ABL1-phosphorylated = ABL1-phosphorylated (Homo sapiens, UniProt P00519); experiment: KINOMEscan binding; conditions: read-out: % Ctrl ABL1-phosphorylated
Experimental: as §28, §27

[9] = Experiment 4 of Fig. S3 = Fig. 1b, duplicate, mean ± S.D., read-out: BMX inhibition IC50
[10] = co-treatment with LY294002 (3 μM)
[11] = pH 6.8, PAMPA/Pe effective permeability

Sequence of BTK (Q06187 whole entry, species assumed): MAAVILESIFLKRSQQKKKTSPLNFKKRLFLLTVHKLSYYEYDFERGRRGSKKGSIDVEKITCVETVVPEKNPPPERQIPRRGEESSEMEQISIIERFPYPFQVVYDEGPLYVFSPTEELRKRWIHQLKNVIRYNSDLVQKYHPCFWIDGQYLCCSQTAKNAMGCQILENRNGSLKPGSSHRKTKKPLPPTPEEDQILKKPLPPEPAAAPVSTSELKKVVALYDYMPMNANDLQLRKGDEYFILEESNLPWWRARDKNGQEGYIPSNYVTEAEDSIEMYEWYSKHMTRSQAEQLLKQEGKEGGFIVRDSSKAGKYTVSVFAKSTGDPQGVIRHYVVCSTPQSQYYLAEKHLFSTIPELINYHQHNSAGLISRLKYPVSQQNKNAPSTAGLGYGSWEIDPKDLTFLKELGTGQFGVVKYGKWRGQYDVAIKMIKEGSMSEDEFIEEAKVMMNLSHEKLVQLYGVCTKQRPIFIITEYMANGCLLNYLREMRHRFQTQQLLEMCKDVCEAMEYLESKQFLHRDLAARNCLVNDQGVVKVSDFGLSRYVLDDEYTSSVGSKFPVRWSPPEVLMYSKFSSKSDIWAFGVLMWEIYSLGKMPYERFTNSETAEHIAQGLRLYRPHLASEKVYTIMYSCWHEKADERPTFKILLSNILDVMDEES
Sequence of TXK (P42681 whole entry): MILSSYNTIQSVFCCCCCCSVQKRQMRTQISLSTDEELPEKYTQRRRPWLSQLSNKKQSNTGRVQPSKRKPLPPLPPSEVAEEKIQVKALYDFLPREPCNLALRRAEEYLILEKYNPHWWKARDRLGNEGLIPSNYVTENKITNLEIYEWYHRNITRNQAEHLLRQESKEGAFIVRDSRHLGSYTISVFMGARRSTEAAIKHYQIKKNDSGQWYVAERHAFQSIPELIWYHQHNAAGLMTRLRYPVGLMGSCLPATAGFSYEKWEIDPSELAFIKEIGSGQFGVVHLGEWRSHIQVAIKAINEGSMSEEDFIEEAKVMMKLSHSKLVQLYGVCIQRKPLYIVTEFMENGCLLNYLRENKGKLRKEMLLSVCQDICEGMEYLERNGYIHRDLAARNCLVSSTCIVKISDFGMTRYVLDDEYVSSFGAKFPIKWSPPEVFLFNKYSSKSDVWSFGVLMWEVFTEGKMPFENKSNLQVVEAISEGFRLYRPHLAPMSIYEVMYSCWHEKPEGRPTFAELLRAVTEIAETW
Sequence of SRC (P12931 whole entry): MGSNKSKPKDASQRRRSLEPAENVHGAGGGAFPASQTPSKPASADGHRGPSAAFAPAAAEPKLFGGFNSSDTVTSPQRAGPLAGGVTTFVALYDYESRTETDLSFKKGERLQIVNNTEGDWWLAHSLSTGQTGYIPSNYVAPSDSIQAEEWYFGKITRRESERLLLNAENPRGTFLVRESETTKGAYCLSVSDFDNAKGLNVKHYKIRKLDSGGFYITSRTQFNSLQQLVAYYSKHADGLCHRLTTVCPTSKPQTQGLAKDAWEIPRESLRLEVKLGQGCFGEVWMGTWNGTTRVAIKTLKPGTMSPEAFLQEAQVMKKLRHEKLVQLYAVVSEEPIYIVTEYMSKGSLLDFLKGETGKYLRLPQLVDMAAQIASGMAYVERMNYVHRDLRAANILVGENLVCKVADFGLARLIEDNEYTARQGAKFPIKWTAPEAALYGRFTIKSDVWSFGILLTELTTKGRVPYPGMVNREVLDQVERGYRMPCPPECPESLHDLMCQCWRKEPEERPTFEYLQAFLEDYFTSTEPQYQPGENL
Sequence of HCK (P08631 whole entry): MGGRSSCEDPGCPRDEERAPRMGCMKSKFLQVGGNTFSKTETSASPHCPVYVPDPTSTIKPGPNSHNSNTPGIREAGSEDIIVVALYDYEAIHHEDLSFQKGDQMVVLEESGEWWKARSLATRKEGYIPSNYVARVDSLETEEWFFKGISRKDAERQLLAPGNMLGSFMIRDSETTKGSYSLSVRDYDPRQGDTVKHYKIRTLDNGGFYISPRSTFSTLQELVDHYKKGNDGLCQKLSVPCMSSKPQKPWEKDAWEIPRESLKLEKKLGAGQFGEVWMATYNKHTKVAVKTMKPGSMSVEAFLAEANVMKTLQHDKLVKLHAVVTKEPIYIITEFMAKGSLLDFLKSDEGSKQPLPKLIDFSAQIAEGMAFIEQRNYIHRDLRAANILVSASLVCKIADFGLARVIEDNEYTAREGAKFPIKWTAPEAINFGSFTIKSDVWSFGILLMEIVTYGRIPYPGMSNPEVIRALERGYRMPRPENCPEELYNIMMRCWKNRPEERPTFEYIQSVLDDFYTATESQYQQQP
Sequence of STK11 (Q15831 whole entry): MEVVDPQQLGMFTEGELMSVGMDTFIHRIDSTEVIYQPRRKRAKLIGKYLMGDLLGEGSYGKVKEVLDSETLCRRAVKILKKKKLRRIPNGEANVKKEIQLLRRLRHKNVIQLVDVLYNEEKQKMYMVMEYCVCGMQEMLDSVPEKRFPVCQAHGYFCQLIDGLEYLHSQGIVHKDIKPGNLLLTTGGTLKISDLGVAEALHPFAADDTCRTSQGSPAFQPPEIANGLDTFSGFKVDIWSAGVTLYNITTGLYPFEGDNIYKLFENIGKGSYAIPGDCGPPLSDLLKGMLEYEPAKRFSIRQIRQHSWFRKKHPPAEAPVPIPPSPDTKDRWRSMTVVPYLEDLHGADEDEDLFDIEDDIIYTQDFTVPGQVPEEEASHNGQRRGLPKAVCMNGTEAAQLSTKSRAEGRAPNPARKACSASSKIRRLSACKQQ
Sequence of PIK3CB (P42338 whole entry): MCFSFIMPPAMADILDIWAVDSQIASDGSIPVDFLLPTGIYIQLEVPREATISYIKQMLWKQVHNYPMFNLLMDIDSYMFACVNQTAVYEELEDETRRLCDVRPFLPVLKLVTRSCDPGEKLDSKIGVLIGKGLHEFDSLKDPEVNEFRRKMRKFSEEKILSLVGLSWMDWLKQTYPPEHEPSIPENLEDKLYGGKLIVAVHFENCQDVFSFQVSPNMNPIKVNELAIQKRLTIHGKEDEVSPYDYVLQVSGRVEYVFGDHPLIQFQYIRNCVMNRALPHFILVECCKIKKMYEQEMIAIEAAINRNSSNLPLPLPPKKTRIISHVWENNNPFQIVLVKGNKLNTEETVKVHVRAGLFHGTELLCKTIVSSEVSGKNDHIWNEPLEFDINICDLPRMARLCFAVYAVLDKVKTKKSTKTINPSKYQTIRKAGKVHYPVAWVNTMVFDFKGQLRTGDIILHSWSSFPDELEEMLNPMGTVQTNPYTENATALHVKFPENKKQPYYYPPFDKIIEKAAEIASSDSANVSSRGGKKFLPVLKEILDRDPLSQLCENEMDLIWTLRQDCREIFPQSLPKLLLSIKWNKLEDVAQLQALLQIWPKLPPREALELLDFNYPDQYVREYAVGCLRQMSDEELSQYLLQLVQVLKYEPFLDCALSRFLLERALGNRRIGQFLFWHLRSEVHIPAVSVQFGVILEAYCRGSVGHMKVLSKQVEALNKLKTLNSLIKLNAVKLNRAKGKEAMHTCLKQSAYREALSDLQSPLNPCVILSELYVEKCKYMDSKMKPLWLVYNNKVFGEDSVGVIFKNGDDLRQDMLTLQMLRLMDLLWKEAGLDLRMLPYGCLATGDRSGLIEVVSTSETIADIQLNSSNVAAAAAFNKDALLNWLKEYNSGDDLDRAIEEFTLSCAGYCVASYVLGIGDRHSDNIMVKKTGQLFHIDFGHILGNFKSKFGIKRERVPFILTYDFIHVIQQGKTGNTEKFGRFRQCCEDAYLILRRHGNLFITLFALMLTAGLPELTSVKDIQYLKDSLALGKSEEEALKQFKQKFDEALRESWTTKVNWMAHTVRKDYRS
Sequence of ABL1-phosphorylated (P00519 whole entry): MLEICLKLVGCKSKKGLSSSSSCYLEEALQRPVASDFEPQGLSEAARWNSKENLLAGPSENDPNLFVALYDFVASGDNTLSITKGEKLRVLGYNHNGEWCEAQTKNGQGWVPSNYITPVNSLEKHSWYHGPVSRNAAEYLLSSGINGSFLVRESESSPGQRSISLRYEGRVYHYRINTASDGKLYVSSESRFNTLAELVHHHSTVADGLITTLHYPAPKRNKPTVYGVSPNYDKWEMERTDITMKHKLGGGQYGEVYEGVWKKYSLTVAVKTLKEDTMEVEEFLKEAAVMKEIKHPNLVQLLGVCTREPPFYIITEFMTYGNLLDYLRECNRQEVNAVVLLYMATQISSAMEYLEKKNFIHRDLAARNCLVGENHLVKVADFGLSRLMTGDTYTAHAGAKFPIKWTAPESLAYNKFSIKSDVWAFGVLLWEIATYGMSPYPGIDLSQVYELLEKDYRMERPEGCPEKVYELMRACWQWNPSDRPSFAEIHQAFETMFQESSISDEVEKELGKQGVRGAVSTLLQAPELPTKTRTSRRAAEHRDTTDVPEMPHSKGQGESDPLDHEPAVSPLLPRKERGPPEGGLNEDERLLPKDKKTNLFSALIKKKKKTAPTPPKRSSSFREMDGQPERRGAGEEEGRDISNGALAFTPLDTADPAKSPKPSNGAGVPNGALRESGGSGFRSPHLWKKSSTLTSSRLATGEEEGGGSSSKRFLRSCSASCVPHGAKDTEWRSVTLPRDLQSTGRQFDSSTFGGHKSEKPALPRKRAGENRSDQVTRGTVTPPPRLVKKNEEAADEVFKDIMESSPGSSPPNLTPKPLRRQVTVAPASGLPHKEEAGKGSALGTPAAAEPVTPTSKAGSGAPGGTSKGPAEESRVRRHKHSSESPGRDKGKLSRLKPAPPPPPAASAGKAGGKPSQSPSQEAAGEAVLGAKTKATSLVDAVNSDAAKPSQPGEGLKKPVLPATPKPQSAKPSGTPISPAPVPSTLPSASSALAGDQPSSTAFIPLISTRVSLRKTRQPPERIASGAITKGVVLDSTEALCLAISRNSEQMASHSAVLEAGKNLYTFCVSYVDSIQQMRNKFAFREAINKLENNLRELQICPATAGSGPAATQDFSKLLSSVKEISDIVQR

In the case of `C=CC(=O)Nc1cc(-n2c(=O)ccc3cnc4cc(-c5ccc(NS(C)(=O)=O)cc5)ccc4c32)ccc1C` [JS24], the IC50 (BMX [1]; Experiment 2 of Fig. S3, control commercial BMX-IN-1, read-out: BMX IC50) is reported as 4.1 ± 0.3 nM, the IC50 (BMX [1]; [9]) is reported as 7.5 nM and the “LE (BMX)” value (BMX [1]; ligand efficiency) is reported as 0.29. The “LipE (BMX)” value (BMX [1]; lipophilic efficiency) was 4.17, the solubility [2] was 1 µM (≈ 0.525 µg/mL) and the ΔTm at 100 µM ([3]; 100 μM compound, versus apo-BMX) was 11.34 ± 0.01 °C. The “Average Tm of BMX with compound” value ([3]; 100 μM compound) was 63.57±0.01 °C, the GI50 (LNCaP cells [4]; 96-well plates, mean of three experiments in triplicate) was 1500 nM and the GI50 (PC3 cells; PC-3, 96 h, 96-well plates, N.d. = no growth inhibition observed within the concentrations tested) was 11400 ± 4100 nM. The “decrease in cell viability” value (LNCaP cells [5]; co-treatment with AKT1/2 (1 μM), relative to control AKT1/2) was 48%, the cell viability reduction (LNCaP cells [5]) was 44% and the “decrease in cell viability” value (LNCaP cells [5]; [10]) was 35%. It also gave a GI50 (H1299) of 7280 ± 370 nM, a PAMPA/%R membrane retention [6] of 13±1% and a Papp (in vitro; pH 6.8, PAMPA permeability) of 6.8 ×10⁻⁶ cm/s. The Papp (in vitro; [11]) was 6.8 ± 0.4 ×10⁻⁶ cm/s, the “BTK potency gain (fold) relative to BMX-IN-1” value (BTK) was 33 fold and the IC50 (BTK) was 11.1 ± 0.8 nM. The “LE (BTK)” value (BTK; ligand efficiency) was 0.29 and the “LipE (BTK)” value (BTK; lipophilic efficiency) was 4.00.

In the case of `C=CC(=O)Nc1cc(C)cc(-n2c(=O)ccc3cnc4cc(-c5ccc(NS(C)(=O)=O)cc5)ccc4c32)c1` [JS25], the IC50 (BMX [1]; [9]) is reported as 3.5 nM, the solubility [2] is reported as 0.1 µM (≈ 0.0525 µg/mL) and the “Average Tm of BMX with compound” value ([3]; 100 μM compound) is reported as 61.43±0.48 °C. The ΔTm at 100 µM [3] was 9.3 ± 0.48 °C, the “degradation of BMX protein” value [7] was “induce degradation of wild-type BMX in PC3 cells” and the GI50 (LNCaP cells [4]) was 6600 nM. The GI50 (PC3 cells; PC-3, 96 h) was 12100 ± 700 nM, the cell viability reduction (LNCaP cells [5]) was 63% and the “decrease in cell viability” value (LNCaP cells [5]; [10]) was 59%. The PAMPA/%R membrane retention [6] was 10±18%, the Papp (in vitro; pH 6.8, PAMPA permeability) was 3.8 ×10⁻⁶ cm/s and the Papp (in vitro; [11]) was 3.8 ± 1.6 ×10⁻⁶ cm/s. It also gave a remaining binding at 1 µM (BMX [8]) of 1.3%, a remaining binding at 1 µM (TXK) of 3.4% and a remaining binding at 1 µM (PIK3CB) of 89%. It also gave a remaining binding at 1 µM (SRC) of 92%, a remaining binding at 1 µM (HCK) of 95% and a remaining binding at 1 µM (STK11) of 52%. For the same compound, the remaining binding at 1 µM (ABL1-phosphorylated) was 100% and the IC50 (BTK) was 5.8 ± 0.04 nM.
